Measurements reported in US9777003B2, “Tricyclic heterocycles as bet protein inhibitors” (Incyte Corporation, priority 2013, dated 2017).
pIC50: −log10 of the molar value. Structures can show the parent of a compound that is named as a salt.

What was measured:
[1] = target: BRD4-BD1 (Homo sapiens (Human), UniProt O60885); experiment: BRD4 AlphaScreen assay, BRD4-BD1; format: binding; conditions: biotin-labeled tetra-acetylated histone H4 peptide, 75 min, room temperature, read-out: BRD4 BD-1 enzyme IC50
In short: (§1)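 Bromodomain–H4Ac4 peptide (50 nM) proximity assay; BD1 at 3.8 nM, BD2 at 20 nM. Reaction 75 min RT, bead detection 75 min in the dark, IC50 by dose-response fit.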

[2] = target: BRD4-BD2 (Homo sapiens (Human), UniProt O60885); experiment: BRD4 AlphaScreen assay, BRD4-BD2; format: binding; conditions: biotin-labeled tetra-acetylated histone H4 peptide, 75 min, room temperature, read-out: BRD4 BD-2 enzyme IC50
In short: as §1

Structure (SMILES)	pIC50 [1]	pIC50 [2]
Cc1nnc2ccc3c(cc(-c4ccn(C)n4)n3Cc3cc(Cl)cc(CN4CCC4)c3)n12 [Example 185, 6-[3-(Azetidin-1-ylmethyl)-5-chlorobenzyl]-1-methyl-7-(1-methyl-1H-pyrazol-3-yl)-6H-pyrrolo[2,3-e][1,2,4]triazolo[4,3-a]pyridine tris(trifluoroacetate) Salt]	≥ 7.00	≥ 7.00
CCn1ccc(-c2cc3c(ccc4nnc(C)n43)n2Cc2cc(Cl)cc(CN3CCC3)c2)n1 [Example 188, 6-(3-(Azetidin-1-ylmethyl)-5-chlorobenzyl)-7-(1-ethyl-1H-pyrazol-3-yl)-1-methyl-6H-pyrrolo[2,3-e][1,2,4]triazolo[4,3-a]pyridine tris(trifluoroacetate) Salt]	≥ 7.00	≥ 7.00
CCn1ccc(-c2cc3c(ccc4nnc(C)n43)n2Cc2cc(Cl)cc(CN3CCCC3)c2)n1 [Example 189, 6-(3-Chloro-5-(pyrrolidin-1-ylmethyl)benzyl)-7-(1-ethyl-1H-pyrazol-3-yl)-1-methyl-6H-pyrrolo[2,3-e][1,2,4]triazolo[4,3-a]pyridine tris(trifluoroacetate) Salt]	≥ 7.00	≥ 7.00
Cc1nnc2ccc3c(cc(-c4ccn(C)n4)n3Cc3cc(Cl)cc(CN4CCCC4)c3)n12 [Example 190, 6-[3-Chloro-5-(pyrrolidin-1-ylmethyl)benzyl]-1-methyl-7-(1-methyl-1H-pyrazol-3-yl)-6H-pyrrolo[2,3-e][1,2,4]triazolo[4,3-a]pyridine bis(trifluoroacetate) Salt]	≥ 7.00	≥ 7.00
Cc1nnc2ccc3c(cc(-c4ccn(C)n4)n3Cc3cc(Cl)cc(CN4CCOCC4)c3)n12 [Example 192, 6-[3-Chloro-5-(morpholin-4-ylmethyl)benzyl]-1-methyl-7-(1-methyl-1H-pyrazol-3-yl)-6H-pyrrolo[2,3-e][1,2,4]triazolo[4,3-a]pyridine bis(trifluoroacetate) Salt]	≥ 7.00	≥ 7.00
Cc1nnc2ccc3c(cc(-c4ncco4)n3Cc3cc(Cl)cc(CN4CC(C)(C)C4)c3)n12 [Example 196, 6-{3-Chloro-5-[(3,3-dimethylazetidin-1-yl)methyl]benzyl}-1-methyl-7-(1,3-oxazol-2-yl)-6H-pyrrolo[2,3-e][1,2,4]triazolo[4,3-a]pyridine bis(trifluoroacetate) Salt]	≥ 7.00	≥ 7.00
Cc1nnc2ccc3c(cc(-c4ncco4)n3Cc3cc(Cl)cc(CN4CCCC4)c3)n12 [Example 197, 6-[3-Chloro-5-(pyrrolidin-1-ylmethyl)benzyl]-1-methyl-7-(1,3-oxazol-2-yl)-6H-pyrrolo[2,3-e][1,2,4]triazolo[4,3-a]pyridine bis(trifluoroacetate) Salt]	≥ 7.00	≥ 7.00
Cc1nnc2ccc3c(cc(-c4ncco4)n3Cc3cc(Cl)cc(CN4CC(O)C4)c3)n12 [Example 198, 1-(3-Chloro-5-{[1-methyl-7-(1,3-oxazol-2-yl)-6H-pyrrolo[2,3-e][1,2,4]triazolo[4,3-a]pyridin-6-yl]methyl}benzyl)azetidin-3-ol bis(trifluoroacetate) Salt]	≥ 7.00	≥ 7.00
Cc1cc2c(cc(Nc3cc[nH]n3)c3nnc(C)n32)n1Cc1ccccc1 [Example 200, 6-Benzyl-1,7-dimethyl-N-1H-pyrazol-3-yl-6H-pyrrolo[2,3-e][1,2,4]triazolo[4,3-a]pyridin-4-amine tris(trifluoroacetate) Salt]	≥ 7.00	≥ 7.00
Cc1cc2c(cc(Nc3ncccn3)c3nnc(C)n32)n1Cc1ccccc1 [Example 201, 6-Benzyl-1,7-dimethyl-N-pyrimidin-2-yl-6H-pyrrolo[2,3-e][1,2,4]triazolo[4,3-a]pyridin-4-amine tris(trifluoroacetate) Salt]	≥ 7.00	≥ 7.00

Further lines, results first:

pIC50 [1]	pIC50 [2]	Structure (SMILES)
≥ 7.00	≥ 7.00	Cc1nnc2ccc3c(cc(-c4ccn(CCC(=O)NC5COC5)n4)n3Cc3cccc(Cl)c3)n12 [Example 168, 3-{3-[6-(3-Chlorobenzyl)-1-methyl-6H-pyrrolo[2,3-e][1,2,4]triazolo[4,3-a]pyridin-7-yl]-1H-pyrazol-1-yl}-N-oxetan-3-ylpropanamide Trifluoroacetate Salt]
≥ 7.00	≥ 7.00	Cc1nnc2ccc3c(cc(-c4ccn(CCC(=O)N5CCOCC5)n4)n3Cc3cccc(Cl)c3)n12 [Example 169, 6-(3-Chlorobenzyl)-1-methyl-7-[1-(3-morpholin-4-yl-3-oxopropyl)-1H-pyrazol-3-yl]-6H-pyrrolo[2,3-e][1,2,4]triazolo[4,3-a]pyridine Trifluoroacetate Salt]
≥ 7.00	≥ 7.00	Cc1nnc2ccc3c(cc(-c4ccn(CCC(=O)NC5CCOCC5)n4)n3Cc3cccc(Cl)c3)n12 [Example 170, 3-{3-[6-(3-Chlorobenzyl)-1-methyl-6H-pyrrolo[2,3-e][1,2,4]triazolo[4,3-a]pyridin-7-yl]-1H-pyrazol-1-yl}-N-(tetrahydro-2H-pyran-4-yl)propanamide Trifluoroacetate Salt]
≥ 7.00	≥ 7.00	Cc1nnc2ccc3c(cc(-c4ccn(CCC(=O)NC5CN(C)C5)n4)n3Cc3cccc(Cl)c3)n12 [Example 171, 3-{3-[6-(3-Chlorobenzyl)-1-methyl-6H-pyrrolo[2,3-e][1,2,4]triazolo[4,3-a]pyridin-7-yl]-1H-pyrazol-1-yl}-N-(1-methylazetidin-3-yl)propanamide bis(trifluoroacetate) Salt]
≥ 7.00	≥ 7.00	Cc1nnc2ccc3c(cc(-c4c[nH]cn4)n3Cc3cccc(Cl)c3)n12 [Example 172, 6-(3-Chlorobenzyl)-7-(1H-imidazol-4-yl)-1-methyl-6H-pyrrolo[2,3-e][1,2,4]triazolo[4,3-a]pyridine bis(trifluoroacetate) Salt]
≥ 7.00	≥ 7.00	Cc1nnc2ccc3c(cc(-c4ccn(CCCO)n4)n3Cc3cccc(Cl)c3)n12 [Example 173, 3-{3-[6-(3-Chlorobenzyl)-1-methyl-6H-pyrrolo[2,3-e][1,2,4]triazolo[4,3-a]pyridin-7-yl]-1H-pyrazol-1-yl}propan-1-ol Trifluoroacetate Salt]
≥ 7.00	≥ 7.00	CNC(=O)CCn1ccc(-c2cc3c(ccc4nnc(C)n43)n2Cc2cccc(Cl)c2)n1 [Example 174, 3-{3-[6-(3-Chlorobenzyl)-1-methyl-6H-pyrrolo[2,3-e][1,2,4]triazolo[4,3-a]pyridin-7-yl]-1H-pyrazol-1-yl}-N-methylpropanamide Trifluoroacetate Salt]
≥ 7.00	≥ 7.00	CCNC(=O)CCn1ccc(-c2cc3c(ccc4nnc(C)n43)n2Cc2cccc(Cl)c2)n1 [Example 175, 3-{3-[6-(3-Chlorobenzyl)-1-methyl-6H-pyrrolo[2,3-e][1,2,4]triazolo[4,3-a]pyridin-7-yl]-1H-pyrazol-1-yl}-N-ethylpropanamide Trifluoroacetate Salt]
≥ 7.00	≥ 7.00	Cc1nnc2ccc3c(cc(-c4ccn(CCC(=O)NC(C)(C)C)n4)n3Cc3cccc(Cl)c3)n12 [Example 176, N-(tert-Butyl)-3-{3-[6-(3-chlorobenzyl)-1-methyl-6H-pyrrolo[2,3-e][1,2,4]triazolo[4,3-a]pyridin-7-yl]-1H-pyrazol-1-yl}propanamide Trifluoroacetate Salt]
≥ 7.00	≥ 7.00	Cc1nnc2ccc3c(cc(-c4ccn(C5COC5)n4)n3Cc3cccc(Cl)c3)n12 [Example 177, 6-(3-Chlorobenzyl)-1-methyl-7-(1-oxetan-3-yl-1H-pyrazol-3-yl)-6H-pyrrolo[2,3-e][1,2,4]triazolo[4,3-a]pyridine Trifluoroacetate Salt]
≥ 7.00	≥ 7.00	Cc1nnc2ccc3c(cc(-c4ccn(CCO)n4)n3Cc3cccc(Cl)c3)n12 [Example 178, 2-{3-[6-(3-Chlorobenzyl)-1-methyl-6H-pyrrolo[2,3-e][1,2,4]triazolo[4,3-a]pyridin-7-yl]-1H-pyrazol-1-yl}ethanol Trifluoroacetate Salt]
≥ 7.00	≥ 7.00	Cc1nnc2ccc3c(cc(-c4ccn(C5CN(CCO)C5)n4)n3Cc3cccc(Cl)c3)n12 [Example 179, 2-(3-{3-[6-(3-Chlorobenzyl)-1-methyl-6H-pyrrolo[2,3-e][1,2,4]triazolo[4,3-a]pyridin-7-yl]-1H-pyrazol-1-yl}azetidin-1-yl)ethanol bis(trifluoroacetate) Salt]
≥ 7.00	≥ 7.00	Cc1nnc2ccc3c(cc(-c4ccn(C5CN(CCC#N)C5)n4)n3Cc3cccc(Cl)c3)n12 [Example 181, 3-(3-{3-[6-(3-Chlorobenzyl)-1-methyl-6H-pyrrolo[2,3-e][1,2,4]triazolo[4,3-a]pyridin-7-yl]-1H-pyrazol-1-yl}azetidin-1-yl)propanenitrile bis(trifluoroacetate) Salt]
≥ 7.00	≥ 7.00	Cc1nnc2ccc3c(cc(-c4ccn(CCC#N)n4)n3Cc3cccc(CN4CCC4)c3)n12 [Example 183, 3-(3-{6-[3-(Azetidin-1-ylmethyl)benzyl]-1-methyl-6H-pyrrolo[2,3-e][1,2,4]triazolo[4,3-a]pyridin-7-yl}-1H-pyrazol-1-yl)propanenitrile bis(trifluoroacetate) Salt]
≥ 7.00	≥ 7.00	Cc1nnc2ccc3c(cc(C4=NCCO4)n3Cc3cccc(Cl)c3)n12 [Example 193, 6-(3-Chlorobenzyl)-7-(4,5-dihydro-1,3-oxazol-2-yl)-1-methyl-6H-pyrrolo[2,3-e][1,2,4]triazolo[4,3-a]pyridine]
≥ 7.00	≥ 7.00	Cc1nnc2ccc3c(cc(-c4ncco4)n3Cc3cccc(Cl)c3)n12 [Example 194, 6-(3-Chlorobenzyl)-1-methyl-7-(1,3-oxazol-2-yl)-6H-pyrrolo[2,3-e][1,2,4]triazolo[4,3-a]pyridine Trifluoroacetate Salt]
